Source: PMC6835155, “Lessons from LIMK1 enzymology and their impact on inhibitor design” (Biochemical Journal, 2019)
Structures can show the parent of a compound that is named as a salt. Where two headings read alike, the source gives them in different places.

Experiments:
[1] = target: T1, LIMK1KD (Homo sapiens, UniProt P53667); assay: Differential (dynamic) scanning fluorimetry (DSF) assay, LIMK1KD; type: binding; settings: for ΔTm at 10 µM: read-out: TM Shift LIMK1 (K)
T1 construct: His6 (N, cleaved yes); made in house; host or cells: baculovirus; Sf9 for virus, TriEx insect cells for expression
T1 sequence (P53667 330-637): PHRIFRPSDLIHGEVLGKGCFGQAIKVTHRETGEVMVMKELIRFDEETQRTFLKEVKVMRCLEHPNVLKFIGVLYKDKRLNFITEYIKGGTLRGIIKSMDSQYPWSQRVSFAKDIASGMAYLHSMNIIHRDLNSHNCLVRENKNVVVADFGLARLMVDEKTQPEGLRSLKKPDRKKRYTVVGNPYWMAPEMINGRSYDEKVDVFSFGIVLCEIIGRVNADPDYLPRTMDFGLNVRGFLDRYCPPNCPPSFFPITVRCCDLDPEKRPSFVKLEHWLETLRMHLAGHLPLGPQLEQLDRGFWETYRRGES

[2] = target: T2, LIMK2KD (Homo sapiens, UniProt P53671); assay: Differential (dynamic) scanning fluorimetry (DSF) assay, LIMK2KD; type: binding; settings: for ΔTm at 10 µM: read-out: TM Shift LIMK2 (K)
T2 construct: The cDNA coding for LIMK2 residues 330 to 632 was PCR amplified; His6 (N, cleaved yes); made in house; host or cells: baculovirus; Sf9 for virus, TriEx insect cells for expression
T2 sequence (P53671 330-632): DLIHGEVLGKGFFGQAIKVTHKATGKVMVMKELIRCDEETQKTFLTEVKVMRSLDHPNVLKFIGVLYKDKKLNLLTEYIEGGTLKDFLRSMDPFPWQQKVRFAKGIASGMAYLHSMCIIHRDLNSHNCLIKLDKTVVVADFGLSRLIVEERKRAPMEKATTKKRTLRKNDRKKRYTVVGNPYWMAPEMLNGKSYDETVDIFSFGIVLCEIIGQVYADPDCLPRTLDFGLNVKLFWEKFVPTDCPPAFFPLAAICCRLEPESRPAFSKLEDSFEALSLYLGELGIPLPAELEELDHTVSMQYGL

[3] = 2 µM LIMK1KD, compound 10 µM, single shot
[4] = LIMK2KD, compound 10 µM, single shot
[5] = LIMK2KD, compound 10 µM, single shot, 10 µM

Row | TM Shift LIMK1 (K) [1, 3] | TM Shift LIMK2 (K) [2, 4] | ΔTm at 10 µM [1, 3] | ΔTm at 10 µM [2, 4] | SMILES | other results
1 | 1.6 K | – | – | – | CCc1cncnc1N1CCN(Cc2nc3ccc(C(F)(F)F)cc3[nH]2)CC1 [PF-04708671] | TM Shift LIMK2 (K) [2, 5]: 1.7 K
2 | 0.4 K | – | – | – | CCc1cncnc1N1CCN(Cc2nc3ccc(C(F)(F)F)cc3[nH]2)CC1 [PF-4708671] | TM Shift LIMK2 (K) [2, 5]: 3.5 K
3 | – | – | 1.3 °C | -0.8 °C | Nc1ncnc2c1c(COc1cccc(Cl)c1)nn2C1CCOCC1 [PF-4800567] | –
4 | – | – | 1.3 °C | 0.1 °C | CNC(=O)c1ccc(C)c(-n2c(C)cc(OCc3ccc(F)cc3F)c(Br)c2=O)c1 [PH-797804] | –
5 | – | – | 1.3 °C | -0.4 °C | Cc1[nH]c(/C=C2\C(=O)Nc3ccc(S(=O)(=O)Cc4c(Cl)cccc4Cl)cc32)c(C)c1C(=O)N1CCC[C@@H]1CN1CCCC1 [PHA-665752] | –
6 | – | – | 5 °C | 0.4 °C | CCc1cccc(CC)c1NC(=O)N1Cc2n[nH]c(NC(=O)c3ccc(N4CCN(C)CC4)cc3)c2C1 [PHA-680632] | –
7 | 1.2 K | 0.4 K | – | – | O=C1NCCc2[nH]c(-c3ccncc3)cc21 [PHA-767491] | –
8 | – | – | 1 °C | 4.1 °C | CC(C)CC(=O)Nc1[nH]nc2c1CN(C(=O)C1CCN(C)CC1)C2(C)C [PHA-793887] | –
9 | 0.6 K | 1.6 K | – | – | CCCCCCCCCCCCc1ccc(S(=O)(=O)Nc2nncs2)cc1 [PHT-427] | –
10 | – | – | -1 °C | 0.3 °C | Oc1cccc(-c2nc(N3CCOCC3)c3oc4ncccc4c3n2)c1 [PI-103] | –
11 | 3.3 K | 2.4 K | – | – | Cc1ccc([N+](=O)[O-])cc1S(=O)(=O)N(C)/N=C/c1cnc2ccc(Br)cn12 [PIK-75] | –
12 | – | – | – | – | CC(=O)Nc1nc(C)c(-c2ccc(Cl)c(S(=O)(=O)NCCO)c2)s1 [PIK-93] | TM Shift LIMK1 (K) [1]: 1.0 K; TM Shift LIMK2 (K) ([2]; 10 µM): 1.7 K
13 | – | – | 2.5 °C | 3.8 °C | CCCS(=O)(=O)Nc1ccc(F)c(C(=O)c2c[nH]c3ncc(Cl)cc23)c1F [PLX-4720] | –
14 | 2.0 K | 0.0 K | – | – | Cc1ccc(-c2nn(C(C)(C)C)c3ncnc(N)c23)cc1 [PP1] | –
15 | 2.0 K | 2.4 K | – | – | CC(C)(C)n1nc(-c2ccc(Cl)cc2)c2c(N)ncnc21 [PP2] | –
16 | 0.2 K | -0.9 K | – | – | COc1ccc(Cl)cc1NC(=O)Nc1cc(C)nc2ccccc12 [PQ 401] | –
17 | – | – | -0.6 °C | -1 °C | NC(=O)c1cnc(N[C@@H]2CCCC[C@@H]2N)nc1Nc1cccc(-n2nccn2)c1 [PRT062607 (P505-15, BIIB057) HCl] | –
18 | – | – | 1.6 °C | 1.5 °C | C1=C/COCc2cc(ccc2OCCN2CCCC2)Nc2nccc(n2)-c2cccc(c2)COC/1 [Pacritinib (SB1518), Pacritinib] | –
19 | 0.0 K | 10.6 K | – | – | COc1ccc(COc2cc3oc(=O)c4cc(C(C)O)ccc4c3cc2OC)cc1 (centres unmarked) [Palomid 529 (P529)] | –
20 | – | – | -0.7 °C | 1.5 °C | CCOc1cc2ncc(C#N)c(Nc3ccc(F)c(Cl)c3)c2cc1NC(=O)/C=C/CN(C)C [Pelitinib (EKB-569), Pelitinib] | –
21 | – | – | -0.3 °C | 0.6 °C | [H]/N=C(/N)N/C(=N/[H])NCCc1ccccc1 [Phenformin HCl] | –
22 | – | – | -0.6 °C | 0.8 °C | Oc1cc(O)cc(/C=C/c2ccc(O)c(O)c2)c1 [Piceatannol] | –
23 | 2.2 K | – | – | – | CS(=O)(=O)N1CCN(Cc2cc3nc(-c4cccc5[nH]ncc45)nc(N4CCOCC4)c3s2)CC1 [Pictilisib] | TM Shift LIMK2 (K) [2, 5]: 0.1 K
24 | – | – | -0.1 °C | 0.4 °C | COc1ccc(Cl)c(Nc2nc3ccccc3nc2NS(=O)(=O)c2cccc(NC(=O)C(C)(C)N)c2)c1 [Pilaralisib] | –

Row | TM Shift LIMK1 (K) [1, 3] | TM Shift LIMK2 (K) [2, 4] | ΔTm at 10 µM [1, 3] | ΔTm at 10 µM [2, 4] | SMILES | other results
25 | – | – | 0.8 °C | 2.1 °C | O=C(NC[C@H](O)CO)c1ccncc1Nc1ccc(I)cc1F [Pimasertib (AS-703026), Pimasertib] | –
26 | – | – | -1.4 °C | 1.3 °C | CC(C)(C)c1cc(NC(=O)Nc2ccc(-c3cn4c(n3)sc3cc(OCCN5CCOCC5)ccc34)cc2)no1 [Quizartinib (AC220), Quizartinib] | –
27 | 0.1 K | -0.2 K | – | – | COc1ccc(F)c(F)c1C(=O)c1cnc(NC2CCN(S(C)(=O)=O)CC2)nc1N [R547] | –
28 | – | – | 1.1 °C | 5.1 °C | Cn1c(Nc2ccc(C(F)(F)F)cc2)nc2cc(Oc3ccnc(-c4ncc(C(F)(F)F)[nH]4)c3)ccc21 [RAF265 (CHIR-265)] | –
29 | 1.4 K | 0.8 K | – | – | O=C(NCc1cccc(O)c1)Nc1nc(-c2ccncc2)cs1 [RKI-1447] | –
30 | -1.1 K | – | – | – | Cc1cnc(NC(=O)Nc2cc(Br)c(C)cc2OC[C@@H]2CNCCO2)cn1 [Rabusertib] | TM Shift LIMK2 (K) [2, 5]: 0.2 K
31 | – | – | 3.2 °C | 3.1 °C | CC(C)(C)Cn1c(N)nc2ccc(-c3[nH]c(C(C)(C)C)nc3-c3ccc(F)cc3)nc21 [Ralimetinib] | –
32 | – | – | -0.1 °C | 0 °C | CO[C@H]1C[C@@H]2CC[C@@H](C)[C@@](O)(O2)C(=O)C(=O)N2CCCC[C@H]2C(=O)O[C@H]([C@H](C)C[C@@H]2CC[C@@H](O)[C@H](OC)C2)CC(=O)[C@H](C)/C=C(\C)[C@@H](O)[C@@H](OC)C(=O)[C@H](C)C[C@H](C)/C=C/C=C/C=C/1C [Rapamycin (Sirolimus), Rapamycin] | –
33 | – | – | -1 °C | 1.1 °C | COc1cc(F)c(F)c(Nc2ccc(I)cc2F)c1NS(=O)(=O)C1(C[C@H](O)CO)CC1 [Refametinib] | –
34 | – | – | 0 °C | 0.7 °C | CNC(=O)c1cc(Oc2ccc(NC(=O)Nc3ccc(Cl)c(C(F)(F)F)c3)c(F)c2)ccn1 [Regorafenib (BAY 73-4506), Regorafenib] | –
35 | – | – | 0.1 °C | 0.2 °C | CO[C@H]1C[C@@H]2CC[C@@H](C)[C@@](O)(O2)C(=O)C(=O)N2CCCC[C@H]2C(=O)O[C@H]([C@H](C)C[C@@H]2CC[C@@H](OP(C)(C)=O)[C@H](OC)C2)CC(=O)[C@H](C)/C=C(\C)[C@@H](O)[C@@H](OC)C(=O)[C@H](C)C[C@H](C)/C=C/C=C/C=C/1C [Ridaforolimus (Deforolimus, MK-8669), Ridaforolimus] | –
36 | – | – | 2.7 °C | 1.6 °C | COc1cc(OC)c(/C=C/S(=O)(=O)Cc2ccc(OC)c(NCC(=O)O)c2)c(OC)c1 [Rigosertib (ON-01910), Rigosertib] | –
37 | 1.6 K | 1.2 K | – | – | CS(=O)(=O)O.Cn1cc(C2=C(c3cn(CCCSC(=N)N)c4ccccc34)C(=O)NC2=O)c2ccccc21 [Ro 31-8220 Mesylate] | –
38 | – | – | 1 °C | 0.4 °C | CN(C)C[C@@H]1CCn2cc(c3ccccc32)C2=C(C(=O)NC2=O)c2cn(c3ccccc23)CCO1 [Ruboxistaurin] | –
39 | – | – | 1.6 °C | 2.6 °C | N#CC[C@H](C1CCCC1)n1cc(-c2ncnc3[nH]ccc23)cn1 [Ruxolitinib (INCB018424), Ruxolitinib] | –
40 | – | – | 0.9 °C | -0.7 °C | N#CC[C@@H](C1CCCC1)n1cc(-c2ncnc3[nH]ccc23)cn1 [S-Ruxolitinib (INCB018424), S-Ruxolitinib] | –
41 | 0.1 K | 2.9 K | – | – | CCn1c(N)c(C(=O)NC)c(=O)c2ccc(C#C[C@@](C)(O)COC)nc21 [SAR131675] | –
42 | 1.0 K | – | – | – | CCn1c(=O)c(-c2cc[nH]n2)cc2c(C)nc(N)nc21 [SAR245409 (XL765)] | TM Shift LIMK2 (K) [2, 5]: 6.6 K
43 | 0.7 K | 0.2 K | – | – | Oc1ccc(-c2nc(-c3ccc(F)cc3)c(-c3ccncc3)[nH]2)cc1 [SB202190 (FHPI)] | –
44 | – | – | 0.7 °C | 1.3 °C | Cn1cc(C2=C(c3ccc(Cl)cc3Cl)C(=O)NC2=O)c2ccccc21 [SB216763] | –
45 | 1.7 K | 0.9 K | – | – | O=C1NC(=O)C(c2ccccc2[N+](=O)[O-])=C1Nc1ccc(O)c(Cl)c1 [SB415286] | –
46 | – | – | 0.1 °C | 1 °C | CN(C)CCOc1ccc(-c2nc(-c3ccncc3)c(-c3ccc4c(c3)CC/C4=N\O)[nH]2)cc1 [SB590885] | –
47 | – | – | 0.3 °C | 0.1 °C | O=C(Nc1ccc2[nH]nc(-c3ccncc3)c2c1)[C@@H]1CCN(CC(=O)N2CCN(c3ccc(-c4ncccn4)cc3)CC2)C1 [SCH772984] | –
48 | 1.7 K | 1.4 K | – | – | CN1CCC(CNc2ccc3ncc(-c4cccc(OC(F)(F)F)c4)n3n2)CC1 [SGI-1776 free base] | –

Row | SMILES | TM Shift LIMK1 (K) [1, 3] | TM Shift LIMK2 (K) [2, 4] | ΔTm at 10 µM [1, 3] | ΔTm at 10 µM [2, 4] | other results
49 | OCCn1cc(-c2cnc3nnn(Cc4ccc5ncccc5c4)c3n2)cn1 [PF-04217903] | 0.3 K | -0.1 K | – | – | –
50 | COc1ccc(-c2cc3c(C)nc(N)nc3n([C@H]3CC[C@H](OCCO)CC3)c2=O)cn1 [PF-04691502] | 0.9 K | 0.6 K | – | – | –
51 | Cc1ccccc1-n1c(Cn2ncc3c(N)ncnc32)nc2cccc(C)c2c1=O [PIK-293] | 0.6 K | 0.9 K | – | – | –
52 | Nc1ncnc2c1c(-c1cnc3[nH]ccc3c1)nn2C1CCCC1 [PP121] | 3.6 K | 2.7 K | – | – | –
53 | CC(=O)c1c(C)c2cnc(Nc3ccc(N4CCNCC4)cn3)nc2n(C2CCCC2)c1=O [Palbociclib (PD-0332991) HCl, Palbociclib] | – | – | 0.5 °C | 0.2 °C | –
54 | Cc1ccc(C(=O)Nc2ccc(CN3CCN(C)CC3)c(C(F)(F)F)c2)cc1C#Cc1cnc2cccnn12 [Ponatinib (AP24534), Ponatinib] | – | – | 5 °C | 4.6 °C | –
55 | C[S+]([O-])c1ccc(-c2nc(-c3ccncc3)c(-c3ccc(F)cc3)[nH]2)cc1 (centres unmarked) [SB203580] | – | – | 1.3 °C | 3.3 °C | –
